From US10874719B2, “Nucleotide phosphate dissipation as a treatment for vascular disorders” (THE REGENTS OF THE UNIVERSITY OF MICHIGAN, priority 2007, dated 2020)

Assays:
IFN-γ and IL-2 mRNA = experiment: Tracheal allograft T-helper 1 cytokine mRNA, real time PCR; assay type: in vivo, mouse; settings: compared with vehicle; for expression of IFN-γ mRNA: wild type allograft
Description: A heterotopic model, characterized by epithelial and subepithelial lymphocyte infiltration by one was also used (Lama, et al, Am J Pathol 169: 47-60, 2006). Donor tracheas were harvested as described above. The trachea was inserted in a subcutaneous pouch created after a 3-mm incision and blunt dissection in the back of the neck. The skin pocket was closed with a size 5.0 nylon suture.
Total RNA was extracted from frozen each mouse tracheas using RNeasy Mini Protocol for Tissues (Qiagen, Valencia, Calif.) and reverse transcribed using a High Capacity cDNA Archive Kit (ABI, Foster City, Calif.), in each case according to the manufacturer's instructions. One microgram of sample RNA was transcribed to cDNA. Real-time PCR was performed on an Applied Biosystems 7000 Real-Time PCR System (ABI) data collection system, and analyses were performed using the accompanying software.
PCR fluorogenic probes for all the target genes and the endogenous reference were purchased as TaqMan® Gene Expression Assays (ABI).
A2A receptor agonist 2-p-(2-carboxyethyl) phenethylamino-5′-N-ethylcarboxamidoadenosine (CGS-21680, 2 mg/kg/day), A2A receptor antagonist 5-Amino-7-(β-phenylethyl)-2-([…])pyrazolo(4,3-e)-1,2,4-triazolo1,5-c pyrimidine (SCH-58261, 2 mg/kg/day), A3 receptor agonist [2-chloro-N^6-(3-iodobenzyl)adenosine-5′-N-methyluronamide (Cl-IBMECA 1 mg/kg/day), A3 receptor antagonist 3-Ethyl 5-benzyl 2-methyl-6-phenyl-4-phenylethynyl-1,4-(±)-dihydropyridine-3,5-dicarboxylate (MRS 1191 2 mg/kg/day) or vehicle (0.1% DMSO in PBS) was administered in a sterile 0.1-ml volume by intraperitoneal injection every 12 hours after surgery. The doses of the adenosine-receptor agonists' were chosen according to previous studies (Erdmann, et al, Blood 105: 4707, 4714, 2005; Hasko, et al, Faseb J 14: 2065-2074, 2000; Satoh, et al, Pancreas 24: 75-82, 2002; Satoh, Gastroenterology 119: 829-836, 2000). The adenosine receptor agonists and antagonists were obtained from Sigma Chemicals (St. Louis, Mo.).

[1] = test system: endothelial cell line bEnd.3 with T lymphocytes; experiment: Allomismatched simple coculture of endothelial cells and T lymphocytes; assay type: cell-based, mouse; settings: 72-h coculture with CD73−/− T-lymphocytes, addition of APCP
Description: (§1) T lymphocytes were purified from splenocytes of CD73^+/+ and CD73^−/− mice (H-2^b) using a Dynal mouse T cell negative isolation kit (Invitrogen). The BALB/c (H-2^d)-derived endothelial cell line bEnd.3 was obtained from American Type Culture Collection (Manassas, Va.).
(§2) To further elucidate the effects of CD73 on interactions between endothelial cells and T lymphocytes found in cardiac allografts, we performed an allomismatched coculture of endothelial cells (H-2^d) and lymphocytes (H-2^b; CD73^+/+ or CD73^−/−) with or without APCP in vitro. First, we evaluated the contribution of T lymphocytes to endothelial cells on the simple coculture experiments. […] Next, we evaluated the contribution of endothelial cells to T lymphocytes utilizing transmigration coculture experiments.

[2] = test system: T lymphocytes transmigrating across bEnd.3 endothelial cells; experiment: Allomismatched transmigration coculture of endothelial cells and T lymphocytes; assay type: cell-based, mouse
Description: as §1, §2

cardiac allografts [3] = experiment: Heterotopic cardiac transplantation: graft survival; assay type: in vivo, mouse
Method: (§3) Completely allomismatched murine heterotopic cardiac transplantation was performed for the present study, as previously described in detail by us^13. Two groups (n=6 in each group) were used to study donor sources of CD73 (CD73^+/+ or CD73^−/− donors into B10A recipients) and another two groups (n=6 in each group) were used to study recipient sources (B10A donors into CD73^+/+ or CD73^−/− recipients). In experiments of adenosine receptor modulators, CBA/J mice were used as donors or recipients instead of B10A mice (n=4 to 6 in each group, as indicated).
Database management and statistical analysis were performed with the Statview version 5.0 software (SAS institute Inc., Cary, N.C.). All values are expressed as means±SEM. Kaplan-Meier analysis was performed to evaluate graft survival, and survival differences were compared by a log-rank test. Comparisons among groups were performed with an unpaired Student t test or one-way analysis of variance (ANOVA) where appropriate. Values of P<0.05 were considered statistically significant.
(§4) To further evaluate the CD73-mediated contribution of specific AR subtypes during allograft rejection or CAV, we performed heterotopic cardiac transplantation using AR modulators given intraperitoneally. First, we examined which AR is acutely responsible for increased vascular leakage in the murine heterotopic cardiac transplantation model. […] Based on the results of this graft permeability assay, we selected A2AR agonists (A2A, CGS21680; A2B, NECA) to establish their potential effects on cardiac allograft rejection or vasculopathy. […] The next set of experiments was designed to measure the role of the A2BAR in CAV.

tracheal allografts = experiment: Orthotopic trachea transplant model: graft luminal occlusion and CD3 positive T cell infiltration; assay type: in vivo, mouse
Description: Two well-established tracheal transplant models were used to study the effect of CD73 on the pathogenesis of allograft rejection. The first model was the previously described double lumen airway (orthotopic) transplant model for studying chronic airway rejection (Harada, et al, Am J Physiol Lung Cell Mol Physiol 293: […]-130, 2007; Minamoto, et al, J Exp Med 202: 283-294, 2005). Briefly, after anesthesia, donor mice were exsanguinated, and whole trachea was harvested by transecting below the cricoid cartilage distal to the […] bifurcation under sterile conditions. Recipient mice were similarly anesthetized, and the whole trachea was exposed. Distal (the seventh intercartilaginous space) and proximal (immediately subjacent to the cricoid cartilage area) orifices positioned on the recipient trachea were anastomosed with both ends of the tracheal graft. This air permissive model mimics lymphocytic bronchitis and allows studies focusing on inflammation. All surgeries were performed using a Leitz-Wild surgical microscope (Urban Engineering, Burbank, Calif.) under ×16 magnifications. Grafts were harvested at the indicated time points and embedded en bloc in Tissue Freezing Medium (Triangle Biomedical Sciences, Durham, N.C.) in Disposable Base Molds (Richard-Allan Scientific, Kalamazoo, Mich.) in liquid nitrogen and stored at -80° C. until the time of analysis. For the orthotopic model histochemical staining was performed for elastin (Accustain; Sigma-Aldrich) to determine graft luminal occlusion on 5-μm-thick sections. Immunostaining was also performed using, serial adjacent sections from each group, with primary antibodies directed against a pan-T-cell marker (hamster anti-mouse CD3; BD Pharmingen, San Diego, Calif.). Morphometric measurements of cross-sectional areas were performed by blindly tracing both epithelial and subepithelial areas using a computer-assisted image analysis system (AxoCamHR; Carl Zeiss Microimaging, Thornwood, N.Y.). […]-130, 2007). Quantitative analysis of T cell infiltration was performed by manually counting the number of CD3-positive cells in epithelial and subepithelial layer under high-power magnified fields. […] The doses of the adenosine-receptor agonists' were chosen according to previous studies ([…], et al, Blood 105: 4707, 4714, 2005; Hasko, et al, Faseb J 14: 2065-2074, 2000; Satoh, et al, Pancreas 24: 75-82, 2002; Satoh, Gastroenterology 119: 829-836, 2000). The adenosine receptor agonists and antagonists were obtained from Sigma Chemicals (St. Louis, Mo.).

cardiac allografts [4] = experiment: Heterotopic cardiac transplantation: cardiac allograft vasculopathy, luminal occlusion of graft coronary arteries; assay type: in vivo, mouse; settings: day 30 post-transplantation, both CD73+/+ and CD73−/− donors or recipients, vs wild-type non-treatment controls
Method: as §3, with “indicated). […]” for “indicated).”
as §4

[5] = CD73−/− donors or recipients, compared with wild-type non-treatment controls
[6] = compared with non-treatment controls

`CCOC(=O)C1=C(C)NC(c2ccccc2)=C(C(=O)OCc2ccccc2)C1C#Cc1ccccc1` (racemic) [MRS 1191, 3-Ethyl 5-benzyl 2-methyl-6-phenyl-4-phenylethynyl-1,4-(±)-dihydropyridine-3,5-dicarboxylate] was tested, and the “expression of IFN-γ mRNA” value (IFN-γ and IL-2 mRNA) was “did not affect”.

With `Nc1ncnc2c1ncn2[C@@H]1O[C@H](COP(=O)(O)CP(=O)(O)O)[C@@H](O)[C@H]1O` [APCP] the “endothelial cell TNF-α mRNA upregulation” value [1] was “significantly enhanced”, the “endothelial cell VCAM-1 mRNA upregulation” value [1] was “significantly enhanced” and the “transmigration of T-lymphocytes” value ([2]; 24-h coculture of CD73−/− T-lymphocytes) was “significantly enhanced”. For the same compound, the “IFN-γ mRNA upregulation in post-transmigrated T-lymphocytes” value ([2]; coculture of CD73−/− T-lymphocytes) was “no significant enhancement”.

In the case of `CCNC(=O)[C@H]1O[C@@H](n2cnc3c(N)nc(NCCc4ccc(CCC(=O)O)cc4)nc32)[C@H](O)[C@@H]1O` [CGS-21680, 2-p-(2-carboxyethyl) phenethylamino-5′-N-ethylcarboxamidoadenosine], the “expression of IFN-γ mRNA” value (IFN-γ and IL-2 mRNA) is reported as “down-regulated”, the “expression of IL-2 mRNA” value (IFN-γ and IL-2 mRNA; wild type allografts) is reported as “down-regulated” and the graft survival (cardiac allografts [3]; [5]) is reported as “no significant increase”. For the same compound, the graft survival (cardiac allografts [3]; [6]) was “significantly increased”, the “CD3 positive cell infiltrations” value (tracheal allografts; CD73−/− allografts, mean±SEM) was 79±28 and the luminal obliteration (tracheal allografts; CD73−/− allografts, mean±SEM) was 36±3%. For the same compound, the “CD3 positive cell infiltrations” value (tracheal allografts; wild type allografts, compared with vehicle) was “less” and the graft luminal obliteration (tracheal allografts; wild type allografts, compared with vehicle, 1 week after transplantation, i.p. every 12 hours) was “significantly reduced”.

In the case of `CNC(=O)[C@H]1O[C@@H](n2cnc3c(NCc4cccc(I)c4)nc(Cl)nc32)[C@H](O)[C@@H]1O` [Cl-IBMECA, 2-chloro-N^6-(3-iodobenzyl)adenosine-5′-N-methyluronamide], the “expression of IFN-γ mRNA” value (IFN-γ and IL-2 mRNA) is reported as “did not affect”.

`CCNC(=O)[C@H]1O[C@@H](n2cnc3c(N)ncnc32)[C@H](O)[C@@H]1O` [NECA] was tested, and the graft survival (cardiac allografts [3]; [5]) was “significantly increased”, the “graft survival compared with CGS21680-treated recipients” value (cardiac allografts [3]; NECA-treated vs CGS21680-treated recipients) was “significantly longer” and the graft survival (cardiac allografts [3]; [6]) was “significantly increased”. The “severity of luminal occlusion” value (cardiac allografts [4]) was “significantly attenuated”.

With `Nc1nc2c(cnn2CCc2ccccc2)c2nc(-c3ccco3)nn12` [SCH-58261, 5-Amino-7-(β-phenylethyl)-2-([…])pyrazolo(4,3-e)-1,2,4-triazolo1,5-c pyrimidine] the “expression of IFN-γ mRNA” value (IFN-γ and IL-2 mRNA) was “did not affect”.
